Several values for one entry are separate records, joined by “and”; a condition that tells them apart may be missing. Equal values may be shown once.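 Where inhibition never reached the appropriate level, the endpoint shown equals the highest concentration tested. Otherwise, values were interpolated linearly from a five-concentration, 48-hour dose response in 96-well plates. GI50: concentration for 50% inhibition of growth.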 Activity calls are given as the source filed them. Rule as the data show it: active = GI50 up to about 1.1 µM and inactive = higher.
Key:
Assay in all cases: DTP human tumour cell line panel, 48 h
ACHN = tested on: ACHN
786-0 = tested on: 786-0
NCI-H460 = tested on: NCI-H460
RXF 393 = tested on: RXF 393
SK-MEL-5 = tested on: SK-MEL-5
A549 = tested on: A549
MDA-MB-435 = tested on: MDA-MB-435
SF-295 = tested on: SF-295
OVCAR-8 = tested on: OVCAR-8
HOP-92 = tested on: HOP-92
SW-620 = tested on: SW-620
UO-31 = tested on: UO-31
MCF7 = tested on: MCF7
NCI-H226 = tested on: NCI-H226
SN12C = tested on: SN12C
HOP-62 = tested on: HOP-62
RPMI-8226 = tested on: RPMI-8226
EKVX = tested on: EKVX
A498 = tested on: A498
SNB-19 = tested on: SNB-19
HCT-116 = tested on: HCT-116
SF-268 = tested on: SF-268
K562 = tested on: K562
HT-29 = tested on: HT-29
LOX IMVI = tested on: LOX IMVI
SF-539 = tested on: SF-539
IGROV-1 = tested on: IGROV-1
COLO 205 = tested on: COLO 205
CAKI-1 = tested on: CAKI-1
U-251 = tested on: U-251
HCT-15 = tested on: HCT-15
TK-10 = tested on: TK-10
NCI/ADR-RES = tested on: NCI/ADR-RES
HCC 2998 = tested on: HCC 2998
SR = tested on: SR
OVCAR-4 = tested on: OVCAR-4
SK-OV-3 = tested on: SK-OV-3
OVCAR-3 = tested on: OVCAR-3
CCRF-CEM = tested on: CCRF-CEM
Hs-578T = tested on: Hs-578T
MOLT-4 = tested on: MOLT-4
SK-MEL-2 = tested on: SK-MEL-2
BT-549 = tested on: BT-549
MDA-MB-231 = tested on: MDA-MB-231
SK-MEL-28 = tested on: SK-MEL-28
OVCAR-5 = tested on: OVCAR-5
NCI-H23 = tested on: NCI-H23
UACC-257 = tested on: UACC-257
T47D = tested on: T47D
MDA-N = tested on: MDA-N
KM12 = tested on: KM12
Malme-3M = tested on: Malme-3M
HL-60 = tested on: HL-60
SNB-75 = tested on: SNB-75
NCI-H522 = tested on: NCI-H522
PC-3 = tested on: PC-3
M14 = tested on: M14
DU-145 = tested on: DU-145
UACC-62 = tested on: UACC-62

SMILES: O=C1N/C(=N/N=C\C(O)C(O)C(O)C(O)CO)N/C1=C/c1ccc(Cl)cc1 (stereo unspecified)
- GI50 (ACHN): > 100 µM (inactive)
- GI50 (786-0): > 100 µM (inactive)
- GI50 (NCI-H460): > 100 µM (inactive)
- GI50 (RXF 393): > 100 µM (inactive)
- GI50 (SK-MEL-5): > 100 µM (inactive)
- GI50 (A549): > 100 µM (inactive)
- GI50 (MDA-MB-435): > 100 µM (inactive)
- GI50 (SF-295): > 100 µM (inactive)
- GI50 (OVCAR-8): > 100 µM (inactive)
- GI50 (HOP-92): > 100 µM (inactive)
- GI50 (SW-620): > 100 µM (inactive)
- GI50 (UO-31): > 100 µM (inactive)
- GI50 (MCF7): > 100 µM (inactive)
- GI50 (NCI-H226): 74.8 µM (inactive)
- GI50 (SN12C): > 100 µM (inactive)
- GI50 (HOP-62): > 100 µM (inactive)
- GI50 (RPMI-8226): > 100 µM (inactive)
- GI50 (EKVX): > 100 µM (inactive) and 84.5 µM (inactive)
- GI50 (A498): > 100 µM (inactive)
- GI50 (SNB-19): > 100 µM (inactive)
- GI50 (HCT-116): > 100 µM (inactive)
- GI50 (SF-268): > 100 µM (inactive) and 98.2 µM (inactive)
- GI50 (K562): 55.6 µM (inactive) and 27.7 µM (inactive)
- GI50 (HT-29): > 100 µM (inactive)
- GI50 (LOX IMVI): > 100 µM (inactive)
- GI50 (SF-539): > 100 µM (inactive)
- GI50 (IGROV-1): > 100 µM (inactive)
- GI50 (COLO 205): > 100 µM (inactive)
- GI50 (CAKI-1): > 100 µM (inactive)
- GI50 (U-251): > 100 µM (inactive)
- GI50 (HCT-15): 76 µM and 50.6 µM
- GI50 (TK-10): > 100 µM (inactive)
- GI50 (NCI/ADR-RES): > 100 µM (inactive)
- GI50 (HCC 2998): 95.7 µM (inactive) and 99.3 µM (inactive)
- GI50 (SR): 47.2 µM (inactive)
- GI50 (OVCAR-4): 37.2 µM (inactive) and 17.7 µM (inactive)
- GI50 (SK-OV-3): > 100 µM (inactive)
- GI50 (OVCAR-3): 43.6 µM (inactive) and 31.6 µM (inactive)
- GI50 (CCRF-CEM): 40.4 µM (inactive)
- GI50 (Hs-578T): > 100 µM (inactive)
- GI50 (MOLT-4): 46 µM (inactive) and > 10 µM (inactive)
- GI50 (SK-MEL-2): > 100 µM (inactive)
- GI50 (BT-549): > 100 µM (inactive)
- GI50 (MDA-MB-231): > 100 µM (inactive)
- GI50 (SK-MEL-28): > 100 µM (inactive)
- GI50 (OVCAR-5): > 100 µM (inactive)
- GI50 (NCI-H23): > 100 µM (inactive)
- GI50 (UACC-257): > 100 µM (inactive)
- GI50 (T47D): 49.7 µM (inactive) and 36.6 µM (inactive)
- GI50 (MDA-N): > 100 µM (inactive)
- GI50 (KM12): > 100 µM (inactive)
- GI50 (Malme-3M): 97.3 µM (inactive)
- GI50 (HL-60): 14.4 µM (inactive) and 23.8 µM (inactive)
- GI50 (SNB-75): > 100 µM (inactive)
- GI50 (NCI-H522): 55.6 µM (inactive) and 58.1 µM (inactive)
- GI50 (PC-3): > 100 µM (inactive)
- GI50 (M14): > 100 µM (inactive)
- GI50 (DU-145): > 100 µM (inactive)

SMILES: Brc1c2c(c(Br)c3nsnc13)N=S=N2
- GI50 (ACHN): 24.7 µM (inactive)
- GI50 (786-0): 15.6 µM (inactive)
- GI50 (NCI-H460): 25.3 µM (inactive)
- GI50 (RXF 393): 15 µM (inactive)
- GI50 (SK-MEL-5): 20 µM (inactive)
- GI50 (A549): 78.5 µM (inactive)
- GI50 (MDA-MB-435): 29.7 µM (inactive)
- GI50 (SF-295): 27.1 µM (inactive)
- GI50 (OVCAR-8): 25.6 µM (inactive)
- GI50 (HOP-92): 17.4 µM (inactive)
- GI50 (SW-620): 29 µM (inactive)
- GI50 (UO-31): 22.8 µM (inactive)
- GI50 (MCF7): 24.2 µM (inactive)
- GI50 (NCI-H226): > 46.9 µM (inactive)
- GI50 (SN12C): 17.4 µM (inactive)
- GI50 (HOP-62): 3.48 µM (inactive)
- GI50 (RPMI-8226): 22 µM (inactive)
- GI50 (EKVX): 27.2 µM (inactive)
- GI50 (A498): 42.6 µM (inactive)
- GI50 (SNB-19): 26.1 µM (inactive)
- GI50 (HCT-116): 27.4 µM (inactive)
- GI50 (SF-268): 26.3 µM (inactive)
- GI50 (K562): 10.1 µM (inactive)
- GI50 (HT-29): 34.4 µM (inactive)
- GI50 (UACC-62): 16.2 µM (inactive)
- GI50 (LOX IMVI): 3.84 µM (inactive)
- GI50 (SF-539): 22.7 µM (inactive)
- GI50 (IGROV-1): 23.5 µM (inactive)
- GI50 (COLO 205): 41.5 µM (inactive)
- GI50 (CAKI-1): 19.1 µM (inactive)
- GI50 (U-251): 23.1 µM (inactive)
- GI50 (HCT-15): 24.6 µM
- GI50 (TK-10): 17.4 µM (inactive)
- GI50 (NCI/ADR-RES): 26.7 µM (inactive)
- GI50 (HCC 2998): > 58.6 µM (inactive)
- GI50 (SR): 4.82 µM (inactive)
- GI50 (OVCAR-4): 23.1 µM (inactive)
- GI50 (SK-OV-3): 46.2 µM (inactive)
- GI50 (OVCAR-3): 20.9 µM (inactive)
- GI50 (CCRF-CEM): 2.65 µM (inactive)
- GI50 (Hs-578T): 21 µM (inactive)
- GI50 (MOLT-4): 17.9 µM (inactive)
- GI50 (SK-MEL-2): 20 µM (inactive)
- GI50 (BT-549): 12.3 µM (inactive)
- GI50 (MDA-MB-231): 23.4 µM (inactive)
- GI50 (SK-MEL-28): 37.5 µM (inactive)
- GI50 (OVCAR-5): 27.6 µM (inactive)
- GI50 (NCI-H23): 23.3 µM (inactive)
- GI50 (UACC-257): 42.4 µM (inactive)
- GI50 (T47D): 27.7 µM (inactive)
- GI50 (MDA-N): 26.5 µM (inactive)
- GI50 (KM12): 46.3 µM (inactive)
- GI50 (Malme-3M): 31.3 µM (inactive)
- GI50 (HL-60): 3.83 µM (inactive)
- GI50 (SNB-75): 25.1 µM (inactive)
- GI50 (NCI-H522): 23.4 µM (inactive)
- GI50 (PC-3): 32.7 µM (inactive)
- GI50 (M14): 22.5 µM (inactive)
- GI50 (DU-145): > 87.1 µM (inactive)

SMILES: CN(CCc1ccc(Cl)c(Cl)c1)CCN(C)CCN1CCCC1
- GI50 (ACHN): 21.2 µM (inactive)
- GI50 (786-0): 8.99 µM (inactive)
- GI50 (NCI-H460): 8.93 µM (inactive)
- GI50 (RXF 393): 10 µM (inactive)
- GI50 (SK-MEL-5): 2.51 µM (inactive)
- GI50 (A549): 10.5 µM (inactive)
- GI50 (MDA-MB-435): 2.02 µM (inactive)
- GI50 (SF-295): 16.5 µM (inactive)
- GI50 (OVCAR-8): 21.7 µM (inactive)
- GI50 (HOP-92): 3.66 µM (inactive)
- GI50 (SW-620): 12.1 µM (inactive)
- GI50 (UO-31): 5.15 µM (inactive)
- GI50 (MCF7): 12.1 µM (inactive)
- GI50 (NCI-H226): 20 µM (inactive)
- GI50 (SN12C): 15.7 µM (inactive)
- GI50 (HOP-62): 15.1 µM (inactive)
- GI50 (RPMI-8226): 2.86 µM (inactive)
- GI50 (EKVX): 16.6 µM (inactive)
- GI50 (A498): 13.1 µM (inactive)
- GI50 (SNB-19): 17.4 µM (inactive)
- GI50 (HCT-116): 5.62 µM (inactive)
- GI50 (SF-268): 6.5 µM (inactive)
- GI50 (K562): 2.25 µM (inactive)
- GI50 (HT-29): 2.38 µM (inactive)
- GI50 (UACC-62): 1.98 µM (inactive)
- GI50 (LOX IMVI): 4.76 µM (inactive)
- GI50 (SF-539): 4.08 µM (inactive)
- GI50 (IGROV-1): 17.7 µM (inactive)
- GI50 (COLO 205): 2.23 µM (inactive)
- GI50 (CAKI-1): 15.2 µM (inactive)
- GI50 (U-251): 10.4 µM (inactive)
- GI50 (HCT-15): 14.5 µM
- GI50 (TK-10): 13.3 µM (inactive)
- GI50 (NCI/ADR-RES): 25.4 µM (inactive)
- GI50 (HCC 2998): 1.96 µM (inactive)
- GI50 (SR): 4.84 µM (inactive)
- GI50 (OVCAR-4): 28.5 µM (inactive)
- GI50 (SK-OV-3): 21.2 µM (inactive)
- GI50 (OVCAR-3): 23.3 µM (inactive)
- GI50 (CCRF-CEM): 3.72 µM (inactive)
- GI50 (Hs-578T): 17.5 µM (inactive)
- GI50 (MOLT-4): 3.6 µM (inactive)
- GI50 (SK-MEL-2): 3.33 µM (inactive)
- GI50 (BT-549): 16.7 µM (inactive)
- GI50 (MDA-MB-231): 8.99 µM (inactive)
- GI50 (SK-MEL-28): 1.64 µM (inactive)
- GI50 (OVCAR-5): 18.6 µM (inactive)
- GI50 (NCI-H23): 14.2 µM (inactive)
- GI50 (UACC-257): 2.36 µM (inactive)
- GI50 (T47D): 19.2 µM (inactive)
- GI50 (MDA-N): 1.79 µM (inactive)
- GI50 (KM12): 10.9 µM (inactive)
- GI50 (Malme-3M): 5.02 µM (inactive)
- GI50 (HL-60): 13.4 µM (inactive)
- GI50 (SNB-75): 14.9 µM (inactive)
- GI50 (NCI-H522): 6.64 µM (inactive)
- GI50 (PC-3): 14.5 µM (inactive)
- GI50 (M14): 4.86 µM (inactive)
- GI50 (DU-145): 25.6 µM (inactive)

From ChEMBL document CHEMBL1201862, “PubChem BioAssay data set” (2004)
